Activity calls are given as the source filed them. The calls are words filed in the database; no cut-off is given here.
How the values were obtained:
[1] = tested on: Mus musculus; experiment: Anti-colitis activity against DSS-induced ulcerative colitis C57BL/6 mouse model assessed as downregulation of RORC mRNA expression level in colon at 12.5 to 25 mg/kg, po for 10 days consecutively by qPCR assay; format: functional, organism-based; conditions: dose 12.5-25 mg/kg, time 10.0 day
[2] = Microsomal stability in rat liver microsomes assessed as intrinsic clearance; format: ADME, Microsome; conditions: read-out: CLH
[3] = tested on: Mus musculus; experiment: Anti-colitis activity against DSS-induced ulcerative colitis C57BL/6 mouse model assessed as downregulation of Foxp3 mRNA expression level in spleen at 6.25 to 25 mg/kg, po for 10 days consecutively by qPCR assay; format: functional, organism-based; conditions: dose 6.25-25 mg/kg, time 10.0 day
[4] = Protein binding in rat plasma assessed as bound fraction; format: ADME, cell-free; conditions: read-out: PPB (converted)
[5] = Genotoxicity in Salmonella typhimurium by AMES test; format: toxicity; conditions: salmonella enterica subsp. enterica serovar typhimurium
[6] = tested on: Mus musculus; experiment: Anti-colitis activity against DSS-induced ulcerative colitis C57BL/6 mouse model assessed as increase in colon length at 12.5 to 25 mg/kg, po for 10 days consecutively; format: functional, organism-based; conditions: dose 12.5-25 mg/kg, time 10.0 day
[7] = tested on: CD4+ve Th; experiment: Inhibition of Th17 cells differentiation in anti-CD3/CD28 stimulated C57BL/6 mouse mesenteric lymph node CD4+ve Th cells assessed as downregulation of IL23r mRNA expression level at 0.1 to 3 uM incubated for 96 hrs in presence of recombinant human TGF-beta, recombinant mouse IL-6 and recombinant mouse IL-23 by qPCR analysis; format: functional, cell-based; conditions: dose 0.1-3 µM
[8] = Cmax in Sprague-Dawley rat at 75 mg/kg,po and measured upto 24 hrs by LC-MS/MS analysis; format: ADME, organism-based; design: dose 75 mg/kg, time < 24 hrs, route po; conditions: in vivo
[9] = tested on: Mus musculus; experiment: Anti-colitis activity against DSS-induced ulcerative colitis C57BL/6 mouse model assessed as reduction in inflammatory cell infiltration in colon at 12.5 to 25 mg/kg, po for 10 days consecutively by H and E staining based microscopic analysis; format: functional, organism-based; conditions: dose 12.5-25 mg/kg, time 10.0 day
[10] = tested on: Mus musculus; experiment: Anti-colitis activity against TNBS-induced ulcerative colitis BALB/c mouse model assessed as decrease in inflammatory injury by measuring MPO level at 12.5 to 25 mg/kg, po for consecutive 7 days; format: functional, organism-based; conditions: dose 12.5-25 mg/kg, time 7.0 day
[11] = Inhibition of Th17 cells differentiation in anti-CD3/CD28 stimulated C57BL/6 mouse mesenteric lymph node CD4+ve Th cells assessed as decrease in proportion of IL17A-positive Th17 cells at 0.3 uM incubated for 96 hrs in presence of recombinant human TGF-beta, recombinant mouse IL-6 and recombinant mouse IL-23 by flow cytometry (Rvb= 16.7%); format: functional; conditions: C57BL/6, CD4+ve Th
[12] = Inhibition of Treg cells differentiation in anti-CD3/CD28 stimulated C57BL/6 mouse mesenteric lymph node CD4+ve Th cells assessed as decrease in proportion of Foxp3-positive Treg cells at 0.3 uM incubated for 96 hrs in presence of recombinant human TGF-beta by flow cytometry (Rvb= 21.1%); format: functional; conditions: C57BL/6, CD4+ve Th
[13] = Tmax in Sprague-Dawley rat at 75 mg/kg,po and measured upto 24 hrs by LC-MS/MS analysis; format: ADME, organism-based; conditions: in vivo
[14] = tested on: CD4+ve Th; experiment: Inhibition of Th17 cells differentiation in anti-CD3/CD28 stimulated C57BL/6 mouse mesenteric lymph node CD4+ve Th cells assessed as downregulation of IL17f mRNA expression level at 0.1 to 3 uM incubated for 96 hrs in presence of recombinant human TGF-beta, recombinant mouse IL-6 and recombinant mouse IL-23 by qPCR analysis; format: functional, cell-based; conditions: dose 0.1-3 µM
[15] = tested on: CD4+ve Th; experiment: Inhibition of Th17 cells differentiation in anti-CD3/CD28 stimulated C57BL/6 mouse mesenteric lymph node CD4+ve Th cells assessed as downregulation of IL17a mRNA expression level at 0.1 to 3 uM incubated for 96 hrs in presence of recombinant human TGF-beta, recombinant mouse IL-6 and recombinant mouse IL-23 by qPCR analysis; format: functional, cell-based; conditions: dose 0.1-3 µM
[16] = biological target: Pyruvate kinase PKM (Homo sapiens, UniProt P14618); experiment: Binding affinity to PKM2 (unknown origin) by SPR assay
Chain of Pyruvate kinase PKM (P14618 whole entry): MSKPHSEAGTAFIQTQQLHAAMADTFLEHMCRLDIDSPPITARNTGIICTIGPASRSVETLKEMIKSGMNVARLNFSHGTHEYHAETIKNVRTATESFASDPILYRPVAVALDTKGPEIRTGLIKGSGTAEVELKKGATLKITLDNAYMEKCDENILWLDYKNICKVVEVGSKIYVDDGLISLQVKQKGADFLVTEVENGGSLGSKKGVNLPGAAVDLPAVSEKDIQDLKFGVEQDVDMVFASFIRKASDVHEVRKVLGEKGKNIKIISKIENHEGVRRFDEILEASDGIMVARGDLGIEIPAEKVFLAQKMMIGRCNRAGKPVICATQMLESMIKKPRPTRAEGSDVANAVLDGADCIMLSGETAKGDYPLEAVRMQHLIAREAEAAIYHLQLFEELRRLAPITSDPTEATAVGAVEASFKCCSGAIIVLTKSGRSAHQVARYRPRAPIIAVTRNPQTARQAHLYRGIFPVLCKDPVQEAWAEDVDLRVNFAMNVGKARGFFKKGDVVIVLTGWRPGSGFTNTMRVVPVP

[17] = tested on: Mus musculus; experiment: Anti-colitis activity against DSS-induced ulcerative colitis C57BL/6 mouse model assessed as reduction in histological score in colon at 12.5 to 25 mg/kg, po for 10 days consecutively by H and E staining based microscopic analysis; format: functional, organism-based; conditions: dose 12.5-25 mg/kg, time 10.0 day
[18] = tested on: CD4+ve Th; experiment: Inhibition of Treg cells differentiation in anti-CD3/CD28 stimulated C57BL/6 mouse mesenteric lymph node CD4+ve Th cells assessed as change in Foxp3 mRNA expression level cells at 0.1 to 3 uM incubated for 96 hrs in presence of recombinant human TGF-beta by qPCR analysis; format: functional, cell-based; conditions: dose 0.1-3 µM
[19] = tested on: Mus musculus; experiment: Anti-colitis activity against DSS-induced ulcerative colitis C57BL/6 mouse model assessed as downregulation of IL10 mRNA expression level in spleen at 6.25 to 25 mg/kg, po for 10 days consecutively by qPCR assay; format: functional, organism-based; conditions: dose 6.25-25 mg/kg, time 10.0 day
[20] = Clearance in Sprague-Dawley rat at 8 mg/kg,iv and measured upto 24 hrs by LC-MS/MS analysis; format: ADME, organism-based; conditions: in vivo
[21] = MRT(t) in Sprague-Dawley rat at 75 mg/kg,po and measured upto 24 hrs by LC-MS/MS analysis; format: ADME, organism-based; conditions: in vivo
[22] = tested on: Mus musculus; experiment: Anti-colitis activity against DSS-induced ulcerative colitis C57BL/6 mouse model assessed as reduction in mucosal damage in colon at 12.5 to 25 mg/kg, po for 10 days consecutively by H and E staining based microscopic analysis; format: functional, organism-based; conditions: dose 12.5-25 mg/kg, time 10.0 day
[23] = Toxicity in C57BL/6 mouse assessed as histological change in lung at 6.25 to 25 mg/kg, po for 10 days consecutively by H and E staining based microscopy; format: organism-based; conditions: in vivo, 240 h, dose 6.25-25 mg/kg, time 10 day
[24] = tested on: CD4+ve Th; experiment: Inhibition of aerobic glycolysis in anti-CD3/CD28 stimulated C57BL/6 mouse mesenteric lymph node CD4+ve Th cells assessed as downregulation of PFK1 protein expression level at 0.3 to 3 uM incubated for 96 hrs in presence of recombinant human TGF-beta, recombinant mouse IL-6 and recombinant mouse IL-23 by Western blot analysis; format: functional, cell-based; conditions: dose 0.3-3 µM
[25] = biological target: Pyruvate kinase PKM (Mus musculus) (UniProt P52480); experiment: Binding affinity to PKM2 in C57BL/6 mouse mesenteric lymph node CD4+ve Th cells assessed as increase in denaturation temperature at 3 uM incubated for 4 hrs by Solvent-induced protein precipitation analysis; format: tissue-based; conditions: filed as activator
Chain of Pyruvate kinase PKM (Mus musculus) (P52480 whole entry): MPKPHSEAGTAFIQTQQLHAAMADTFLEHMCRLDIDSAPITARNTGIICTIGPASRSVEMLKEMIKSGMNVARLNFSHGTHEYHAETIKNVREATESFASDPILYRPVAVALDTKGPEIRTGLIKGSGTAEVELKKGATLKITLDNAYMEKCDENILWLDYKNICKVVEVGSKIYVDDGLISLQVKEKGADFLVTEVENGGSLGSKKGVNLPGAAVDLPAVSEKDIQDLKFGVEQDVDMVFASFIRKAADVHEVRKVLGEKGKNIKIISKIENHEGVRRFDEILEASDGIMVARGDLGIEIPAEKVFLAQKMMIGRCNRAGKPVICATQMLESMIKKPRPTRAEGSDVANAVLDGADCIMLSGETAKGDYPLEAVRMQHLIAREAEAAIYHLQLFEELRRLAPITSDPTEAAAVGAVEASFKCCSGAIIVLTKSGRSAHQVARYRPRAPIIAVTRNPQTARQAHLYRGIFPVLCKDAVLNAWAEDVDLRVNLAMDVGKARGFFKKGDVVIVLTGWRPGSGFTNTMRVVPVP

[26] = Cmax in Sprague-Dawley rat at 8 mg/kg,iv and measured upto 24 hrs by LC-MS/MS analysis; format: ADME, organism-based; design: time < 24 hrs, dose 8 mg/kg, route iv; conditions: in vivo
[27] = tested on: CD4+ve Th; experiment: Inhibition of Th17 cells differentiation in anti-CD3/CD28 stimulated C57BL/6 mouse mesenteric lymph node CD4+ve Th cells assessed as downregulation of IL21 mRNA expression level at 0.1 to 3 uM incubated for 96 hrs in presence of recombinant human TGF-beta, recombinant mouse IL-6 and recombinant mouse IL-23 by qPCR analysis; format: functional, cell-based; conditions: dose 0.1-3 µM
[28] = tested on: CD4+ve Th; experiment: Inhibition of Th17 cells differentiation in anti-CD3/CD28 stimulated C57BL/6 mouse mesenteric lymph node CD4+ve Th cells assessed as increase in PKM2 tetramer formation at 0.1 to 3 uM incubated for 96 hrs in presence of recombinant human TGF-beta, recombinant mouse IL-6 and recombinant mouse IL-23 by Western blot analysis; format: functional, cell-based; conditions: dose 0.1-3 µM

C=C1C(=O)O[C@H]2[C@H]1CC[C@@]1(C)[C@@H](CC[C@@]3(C)O[C@@H]23)C1(F)F
Activity [1]: Active
microsomal CLint [2]: 110 µL/min/mg
Activity [3]: inactive
fraction unbound [4]: 0.201
Activity [5]: Non-Toxic
Activity [6]: Active
inhibition [7]: Active
Cmax [8]: 82 ng/mL
Activity [9]: Active
Activity [10]: Active
IL17A+ cells at 0.3 µM [11]: 12.4%
Foxp3+ cells at 0.3 µM [12]: 18.4%
Tmax [13]: 6 h
inhibition [14]: Active
inhibition [15]: Active
Kd [16]: 18.4 nM
Activity [17]: Active
inhibition [18]: inactive
Activity [19]: inactive
clearance [20]: 103 mL/min/kg
MRT last at 24 h [21]: 12.4 h
Activity [22]: Active
Activity [23]: Non-Toxic
inhibition [24]: Active
Activity [25]: Active
Cmax [26]: 190 ng/mL
inhibition [27]: Active
inhibition [28]: Active

Source: ChEMBL document CHEMBL5338738, “Discovery of Novel Sesquiterpene Lactone Derivatives as Potent PKM2 Activators for the Treatment of Ulcerative Colitis” (J Med Chem, 2023)
